Source: ChEMBL document CHEMBL4387741, “Optimization of novel reversible Bruton's tyrosine kinase inhibitors identified using Tethering-fragment-based screens” (Bioorg Med Chem, 2019)

Experiments:
[1] = tested on: Tyrosine-protein kinase ABL1 (Homo sapiens), P00519 [H396P]; assay: Inhibition of human phosphorylated ABL1 H396P mutant (S229 to K512 residues) expressed in mammalian expression system at 1 uM by Kinomescan method relative to control
[2] = biological target: Cyclin-dependent kinase-like 2 (Homo sapiens) (UniProt Q92772); assay: Inhibition of wild-type human partial length CDKL2 (M1 to D327 residues) expressed in bacterial expression system at 1 uM by Kinomescan method relative to control
[3] = biological target: Serine/threonine-protein kinase 17A (Homo sapiens) (UniProt Q9UEE5); assay: Inhibition of wild-type human partial length DRAK1 (R32 to E363 residues) expressed in bacterial expression system at 1 uM by Kinomescan method relative to control
[4] = biological target: Receptor tyrosine-protein kinase erbB-2 (Homo sapiens) (UniProt P04626); assay: Inhibition of wild-type human partial length ERBB2 (K646 to V1225 residues) expressed in mammalian expression system at 1 uM by Kinomescan method relative to control
[5] = tested on: Receptor-type tyrosine-protein kinase FLT3 (Homo sapiens), P36888 [D835Y]; assay: Inhibition of human partial length FLT3 D835Y mutant (Q580 to Y969 residues) expressed in bacterial expression system at 1 uM by Kinomescan method relative to control
[6] = biological target: Tyrosine-protein kinase FRK (Homo sapiens) (UniProt P42685); assay: Inhibition of wild-type human partial length FRK (A215 to F503 residues) expressed in bacterial expression system at 1 uM by Kinomescan method relative to control
[7] = biological target: LIM domain kinase 1 (Homo sapiens) (UniProt P53667); assay: Inhibition of wild-type human full length LIMK1 (M1 to D647 residues) expressed in bacterial expression system at 1 uM by Kinomescan method relative to control
[8] = biological target: Mitogen-activated protein kinase kinase kinase kinase 5 (Homo sapiens) (UniProt Q9Y4K4); assay: Inhibition of wild-type human partial length MAP4K5 (M1 to P297 residues) expressed in bacterial expression system at 1 uM by Kinomescan method relative to control
[9] = biological target: Serine/threonine-protein kinase PAK 3 (Homo sapiens) (UniProt O75914); assay: Inhibition of wild-type human full length PAK3 (M1 to R544 residues) expressed in bacterial expression system at 1 uM by Kinomescan method relative to control
[10] = biological target: Cyclin-dependent kinase 17 (Homo sapiens) (UniProt Q00537); assay: Inhibition of wild-type human full length PCTK2 (M1 to F523 residues) expressed in bacterial expression system at 1 uM by Kinomescan method relative to control
[11] = tested on: Phosphatidylinositol 4,5-bisphosphate 3-kinase catalytic subunit alpha isoform (Homo sapiens), P42336 [E545K]; assay: Inhibition of human partial length PIK3CA E545K mutant (R108 to N1068 residues) expressed in mammalian expression system at 1 uM by Kinomescan method relative to control
[12] = biological target: Phosphatidylinositol 4,5-bisphosphate 3-kinase catalytic subunit delta isoform (Homo sapiens) (UniProt O00329); assay: Inhibition of wild-type human partial length PIK3CD (R108 to Q1044 residues) expressed in mammalian expression system at 1 uM by Kinomescan method relative to control
[13] = biological target: Protein kinase C eta type (Homo sapiens) (UniProt P24723); assay: Inhibition of wild-type human partial length PRKCH (S324 to P683 residues) expressed in bacterial expression system at 1 uM by Kinomescan method relative to control
[14] = biological target: Protein kinase C iota type (Homo sapiens) (UniProt P41743); assay: Inhibition of wild-type human partial length PRKCI (H215 to V587 residues) expressed in mammalian expression system at 1 uM by Kinomescan method relative to control
[15] = biological target: Ribosomal protein S6 kinase alpha-5 (Homo sapiens) (UniProt O75582); assay: Inhibition of wild-type human partial length N-terminal RPS6KA5 kinase domain 1 expressed in bacterial expression system at 1 uM by Kinomescan method relative to control
[16] = biological target: Ribosomal protein S6 kinase alpha-3 (Homo sapiens) (UniProt P51812); assay: Inhibition of wild-type human partial length C-terminal RSK2 kinase domain 2 (V402 to S715 residues) expressed in mammalian expression system at 1 uM by Kinomescan method relative to control
[17] = biological target: Serine/threonine-protein kinase WNK3 (Homo sapiens) (UniProt Q9BYP7); assay: Inhibition of wild-type human partial length WNK3 (M1 to D434 residues) expressed in mammalian expression system at 1 uM by Kinomescan method relative to control
[18] = biological target: Calcium/calmodulin-dependent protein kinase type II subunit beta (Homo sapiens) (UniProt Q13554); assay: Inhibition of wild-type human partial length CAMK2B (M1 to Q380 residues) expressed in bacterial expression system at 10 uM by Kinomescan method relative to control
[19] = biological target: Serine/threonine-protein kinase DCLK1 (Homo sapiens) (UniProt O15075); assay: Inhibition of wild-type human partial length DCAMKL1 (L270 to A662 residues) expressed in mammalian expression system at 10 uM by Kinomescan method relative to control
[20] = biological target: Serine/threonine-protein kinase haspin (Homo sapiens) (UniProt Q8TF76); assay: Inhibition of wild-type human partial length HASPIN (I452 to K798 residues) expressed in mammalian expression system at 10 uM by Kinomescan method relative to control
[21] = biological target: Serine/threonine-protein kinase NIM1 (Homo sapiens) (UniProt Q8IY84); assay: Inhibition of wild-type human partial length NIM1 (Q44 to N355 residues) expressed in mammalian expression system at 10 uM by Kinomescan method relative to control
[22] = tested on: Phosphatidylinositol 4,5-bisphosphate 3-kinase catalytic subunit alpha isoform (Homo sapiens), P42336 [M1043I]; assay: Inhibition of human partial length PIK3CA M1043I mutant (R108 to N1068 residues) expressed in mammalian expression system at 10 uM by Kinomescan method relative to control
[23] = biological target: Proto-oncogene tyrosine-protein kinase receptor Ret (Homo sapiens) (UniProt P07949); assay: Inhibition of wild-type human partial length RET (E713 to D1014 residues) expressed in bacterial expression system at 10 uM by Kinomescan method relative to control
[24] = biological target: Tyrosine-protein kinase receptor Tie-1 (Homo sapiens) (UniProt P35590); assay: Inhibition of wild-type human partial length TIE1 (T819 to A1138 residues) expressed in bacterial expression system at 10 uM by Kinomescan method relative to control
[25] = biological target: Non-receptor tyrosine-protein kinase TYK2 (Homo sapiens) (UniProt P29597); assay: Inhibition of wild-type human partial length TYK2 JH2 pseudokinase domain (G556 to D888 residues) expressed in mammalian expression system at 10 uM by Kinomescan method relative to control
[26] = biological target: Serine/threonine-protein kinase 32C (Homo sapiens) (UniProt Q86UX6); assay: Inhibition of wild-type human partial length YANK3 (M68 to G486 residues) expressed in bacterial expression system at 10 uM by Kinomescan method relative to control
Chain of Serine/threonine-protein kinase 32C (Homo sapiens) (Q86UX6 whole entry, the tested form may be a part): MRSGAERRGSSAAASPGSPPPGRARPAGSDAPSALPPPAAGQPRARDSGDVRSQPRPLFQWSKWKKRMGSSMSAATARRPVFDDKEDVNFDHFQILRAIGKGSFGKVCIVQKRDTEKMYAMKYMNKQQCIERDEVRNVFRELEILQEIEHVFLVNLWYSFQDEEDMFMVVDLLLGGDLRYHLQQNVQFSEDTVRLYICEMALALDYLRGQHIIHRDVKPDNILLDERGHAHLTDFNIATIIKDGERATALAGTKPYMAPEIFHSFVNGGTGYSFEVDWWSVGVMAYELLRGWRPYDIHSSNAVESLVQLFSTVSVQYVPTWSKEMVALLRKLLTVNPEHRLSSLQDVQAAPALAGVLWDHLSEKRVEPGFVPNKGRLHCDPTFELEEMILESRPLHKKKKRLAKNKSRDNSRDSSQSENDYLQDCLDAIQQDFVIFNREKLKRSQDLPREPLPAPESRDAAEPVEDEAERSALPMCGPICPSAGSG

Chain of Serine/threonine-protein kinase DCLK1 (Homo sapiens) (O15075 whole entry, the tested form may be a part): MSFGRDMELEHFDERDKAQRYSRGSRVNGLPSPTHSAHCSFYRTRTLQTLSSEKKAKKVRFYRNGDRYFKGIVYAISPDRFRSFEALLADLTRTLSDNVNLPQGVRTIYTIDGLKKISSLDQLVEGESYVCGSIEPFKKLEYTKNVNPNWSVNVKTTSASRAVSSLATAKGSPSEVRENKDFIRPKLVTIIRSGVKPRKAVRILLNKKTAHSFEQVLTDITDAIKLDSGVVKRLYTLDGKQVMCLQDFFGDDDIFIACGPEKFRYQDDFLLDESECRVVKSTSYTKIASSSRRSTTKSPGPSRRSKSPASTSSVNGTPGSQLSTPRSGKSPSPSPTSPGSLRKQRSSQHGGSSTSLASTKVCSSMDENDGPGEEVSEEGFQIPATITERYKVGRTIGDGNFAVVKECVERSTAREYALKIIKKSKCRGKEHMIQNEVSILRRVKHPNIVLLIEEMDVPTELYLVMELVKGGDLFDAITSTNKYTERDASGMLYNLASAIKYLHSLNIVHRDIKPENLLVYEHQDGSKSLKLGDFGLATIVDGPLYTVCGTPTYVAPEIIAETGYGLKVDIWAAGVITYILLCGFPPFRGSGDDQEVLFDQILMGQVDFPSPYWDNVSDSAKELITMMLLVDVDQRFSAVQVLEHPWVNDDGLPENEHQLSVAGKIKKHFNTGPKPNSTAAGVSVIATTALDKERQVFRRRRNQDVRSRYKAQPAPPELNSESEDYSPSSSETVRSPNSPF
Chain of Ribosomal protein S6 kinase alpha-3 (Homo sapiens) (P51812 whole entry, the tested form may be a part): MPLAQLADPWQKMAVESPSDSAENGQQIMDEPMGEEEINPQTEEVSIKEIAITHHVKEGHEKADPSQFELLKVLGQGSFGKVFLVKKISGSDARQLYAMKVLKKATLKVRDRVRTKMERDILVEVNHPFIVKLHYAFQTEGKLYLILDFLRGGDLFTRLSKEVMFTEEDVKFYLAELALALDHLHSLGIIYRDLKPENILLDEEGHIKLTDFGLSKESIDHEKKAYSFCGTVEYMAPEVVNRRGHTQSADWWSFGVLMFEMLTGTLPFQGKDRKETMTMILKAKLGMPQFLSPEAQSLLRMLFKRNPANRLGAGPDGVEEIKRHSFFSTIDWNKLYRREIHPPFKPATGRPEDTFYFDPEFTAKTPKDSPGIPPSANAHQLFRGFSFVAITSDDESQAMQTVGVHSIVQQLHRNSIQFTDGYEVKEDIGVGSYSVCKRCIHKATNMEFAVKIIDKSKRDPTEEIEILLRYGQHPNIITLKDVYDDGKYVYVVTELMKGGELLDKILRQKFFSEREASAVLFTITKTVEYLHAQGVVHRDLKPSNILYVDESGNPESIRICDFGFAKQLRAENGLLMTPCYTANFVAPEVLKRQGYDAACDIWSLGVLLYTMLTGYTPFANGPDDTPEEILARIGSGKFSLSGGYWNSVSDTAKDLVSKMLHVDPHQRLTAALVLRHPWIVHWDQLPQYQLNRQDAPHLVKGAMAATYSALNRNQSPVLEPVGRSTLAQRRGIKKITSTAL
Chain of Serine/threonine-protein kinase PAK 3 (Homo sapiens) (O75914 whole entry, looked up, the tested form may be a part): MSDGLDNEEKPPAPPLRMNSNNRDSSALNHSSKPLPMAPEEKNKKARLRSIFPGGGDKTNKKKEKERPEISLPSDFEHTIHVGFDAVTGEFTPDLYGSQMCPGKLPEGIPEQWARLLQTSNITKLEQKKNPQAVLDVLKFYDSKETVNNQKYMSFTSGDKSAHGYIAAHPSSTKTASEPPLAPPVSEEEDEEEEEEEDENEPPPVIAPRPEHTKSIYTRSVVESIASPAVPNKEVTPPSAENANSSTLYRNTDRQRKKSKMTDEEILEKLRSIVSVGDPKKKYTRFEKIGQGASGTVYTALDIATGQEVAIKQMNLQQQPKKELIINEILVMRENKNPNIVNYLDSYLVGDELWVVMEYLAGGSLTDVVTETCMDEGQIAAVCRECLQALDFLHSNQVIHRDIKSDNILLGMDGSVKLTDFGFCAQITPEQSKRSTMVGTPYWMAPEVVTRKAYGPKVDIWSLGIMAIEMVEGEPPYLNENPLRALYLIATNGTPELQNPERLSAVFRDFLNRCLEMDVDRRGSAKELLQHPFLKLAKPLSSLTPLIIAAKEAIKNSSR
Chain of Receptor tyrosine-protein kinase erbB-2 (Homo sapiens) (P04626 whole entry, the tested form may be a part): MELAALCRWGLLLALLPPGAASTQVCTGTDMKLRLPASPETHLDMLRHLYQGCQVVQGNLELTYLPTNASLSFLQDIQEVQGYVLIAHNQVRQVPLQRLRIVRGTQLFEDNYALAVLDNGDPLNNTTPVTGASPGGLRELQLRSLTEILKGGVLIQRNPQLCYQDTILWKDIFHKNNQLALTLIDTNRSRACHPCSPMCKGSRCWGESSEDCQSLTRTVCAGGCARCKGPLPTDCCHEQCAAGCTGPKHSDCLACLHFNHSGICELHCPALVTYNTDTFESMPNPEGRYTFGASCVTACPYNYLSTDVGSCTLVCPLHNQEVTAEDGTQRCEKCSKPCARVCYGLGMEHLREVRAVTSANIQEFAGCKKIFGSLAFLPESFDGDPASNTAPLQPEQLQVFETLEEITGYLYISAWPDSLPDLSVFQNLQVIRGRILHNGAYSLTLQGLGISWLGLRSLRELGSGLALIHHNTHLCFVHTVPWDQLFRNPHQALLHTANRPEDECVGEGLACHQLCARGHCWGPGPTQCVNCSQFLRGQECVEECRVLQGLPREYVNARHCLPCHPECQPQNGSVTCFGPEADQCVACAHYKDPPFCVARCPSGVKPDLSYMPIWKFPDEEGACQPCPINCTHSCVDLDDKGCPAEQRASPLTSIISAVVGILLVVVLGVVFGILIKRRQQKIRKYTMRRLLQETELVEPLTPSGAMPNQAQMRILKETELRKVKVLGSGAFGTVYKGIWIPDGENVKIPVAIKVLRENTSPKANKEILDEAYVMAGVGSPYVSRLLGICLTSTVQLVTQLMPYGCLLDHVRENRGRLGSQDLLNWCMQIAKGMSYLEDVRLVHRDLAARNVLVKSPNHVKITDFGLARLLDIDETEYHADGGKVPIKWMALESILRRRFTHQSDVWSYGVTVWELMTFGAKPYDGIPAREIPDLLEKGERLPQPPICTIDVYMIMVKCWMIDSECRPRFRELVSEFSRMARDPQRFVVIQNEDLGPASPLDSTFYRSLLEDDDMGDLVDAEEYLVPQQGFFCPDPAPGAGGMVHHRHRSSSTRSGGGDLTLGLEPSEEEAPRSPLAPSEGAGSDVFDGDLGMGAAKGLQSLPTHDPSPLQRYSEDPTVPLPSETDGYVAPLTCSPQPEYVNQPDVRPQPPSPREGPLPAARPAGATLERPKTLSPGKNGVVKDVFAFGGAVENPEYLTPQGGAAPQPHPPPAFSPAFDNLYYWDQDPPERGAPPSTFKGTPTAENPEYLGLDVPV
Chain of Tyrosine-protein kinase FRK (Homo sapiens) (P42685 whole entry, the tested form may be a part): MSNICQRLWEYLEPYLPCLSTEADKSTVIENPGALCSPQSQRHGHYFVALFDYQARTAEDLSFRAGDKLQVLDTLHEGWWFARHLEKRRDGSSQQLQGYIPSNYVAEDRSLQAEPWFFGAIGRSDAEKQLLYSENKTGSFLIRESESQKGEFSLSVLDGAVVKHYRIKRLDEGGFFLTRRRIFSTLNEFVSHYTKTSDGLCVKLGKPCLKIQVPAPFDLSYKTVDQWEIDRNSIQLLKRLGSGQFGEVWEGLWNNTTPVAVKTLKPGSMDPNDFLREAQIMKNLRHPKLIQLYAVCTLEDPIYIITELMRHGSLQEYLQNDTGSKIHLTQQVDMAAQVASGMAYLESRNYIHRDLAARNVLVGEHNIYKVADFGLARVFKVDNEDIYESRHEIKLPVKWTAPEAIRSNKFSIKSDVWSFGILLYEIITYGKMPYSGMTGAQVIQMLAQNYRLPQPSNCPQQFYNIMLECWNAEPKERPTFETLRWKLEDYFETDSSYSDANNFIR
Chain of Protein kinase C iota type (Homo sapiens) (P41743 whole entry, the tested form may be a part): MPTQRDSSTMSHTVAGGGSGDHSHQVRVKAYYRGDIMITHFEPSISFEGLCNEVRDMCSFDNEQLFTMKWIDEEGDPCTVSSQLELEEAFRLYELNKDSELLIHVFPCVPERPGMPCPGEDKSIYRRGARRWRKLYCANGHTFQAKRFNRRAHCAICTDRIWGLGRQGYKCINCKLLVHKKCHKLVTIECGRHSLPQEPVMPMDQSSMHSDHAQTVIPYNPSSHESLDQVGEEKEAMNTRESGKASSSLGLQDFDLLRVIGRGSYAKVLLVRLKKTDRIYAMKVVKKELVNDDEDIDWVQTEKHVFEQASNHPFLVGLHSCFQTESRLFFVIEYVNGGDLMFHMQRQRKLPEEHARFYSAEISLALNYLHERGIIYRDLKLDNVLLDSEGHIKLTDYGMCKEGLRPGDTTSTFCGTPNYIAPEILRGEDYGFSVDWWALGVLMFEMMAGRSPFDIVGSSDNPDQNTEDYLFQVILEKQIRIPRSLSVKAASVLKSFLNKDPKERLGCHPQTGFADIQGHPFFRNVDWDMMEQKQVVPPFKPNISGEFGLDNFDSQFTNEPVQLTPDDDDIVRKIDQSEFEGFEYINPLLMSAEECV

O=C(Nc1cccc([C@@H]2CN(c3ncnc4[nH]ccc34)CCN2CCO)c1)Nc1c(F)cccc1N1CCCC1
inhibition [1]: 71% | inhibition [2]: 100% | inhibition [3]: 82% | inhibition [4]: 83% | inhibition [5]: 2.2% | inhibition [6]: 99% | inhibition [7]: 85% | inhibition [8]: 91% | inhibition [9]: 72% | inhibition [10]: 100% | inhibition [11]: 56% | inhibition [12]: 100% | inhibition [13]: 80% | inhibition [14]: 54% | inhibition [15]: 99% | inhibition [16]: 100% | inhibition [17]: 61%

O=C(Nc1cccc([C@H]2CCCN(c3ncnc4[nH]ccc34)C2)c1)Nc1ccccc1N1CCCC1
inhibition [18]: 87% | inhibition [19]: 52% | inhibition [20]: 63% | inhibition [21]: 75% | inhibition [22]: 93% | inhibition [23]: 0% | inhibition [24]: 45% | inhibition [25]: 50% | inhibition [26]: 100%
